# Laboratory results taken from patent publication US12162811B2, “F-18 labeled chiral pure derivative of hydroxyfuran, preparation method and use thereof” (The First Affiliated Hospital of Sun Yat-sen University, priority 2022, dated 2024).
# Entries after “also recorded” stand apart in the source; their conditions may differ.
# Legend:
# [1] = biodistribution in human body (ROI time-activity profiles of source organs); format: in vivo
# Excerpt: For the 6 sets of images obtained by Example 5, the ROI was depicted in the whole body images at the first time point and replicated to subsequent time point scans so as to determine the cumulative radioactivity in each source organ. The genital volume was manually adjusted if necessary. Major source organs include brain, thyroid, lung, heart wall, liver, gallbladder, stomach, adrenals, kidneys, pancreas, spleen, uterus (female only), testes (male only), and bone marrow. The biodistribution analysis included muscle and the absorbed dose analysis included bladder. Spinal ROIs were plotted as an alternative to the red bone marrow. Time-activity profiles were derived from each ROI, and cumulative radioactivity for each source organ was expressed as a percentage of the injected dose (% ID).
# [2] = radiometrics: residence times and radiation absorbed dose (MIRD); format: in vivo, human
# Experimental: For the six sets of data obtained through Example 6, the residence times were calculated as the area under each time-activity curve by curve fitting with either a mono-or bi-exponential function model. The residence times of the bladder were generated by the integration of the time-activity curve from zero time to the last emission scan time plus the integration of the function from the last scan time to infinity (physical decay only). These residence times are then used for radiation absorbed dose calculations. The radiation absorbed dose was calculated for each subject using the Medical Internal Radiation Dose (MIRD) algorithm. The absorbed dose in the target area specified by MIRD was calculated according to the standardized Cristy Eckerman 70 kg adult male model, and the effective dose was assessed according to the tissue weighting factors in the publication of International Commission on Radiological Protection.
# [3] = tested on: tumor lesions; experiment: whole-body dynamic PET/CT imaging of tumor patients; format: in vivo, human
# Experimental: Six patients with different tumors fasted and urinated for at least 6 hours prior to receiving PET/CT scanning, approximately 5, 13, 30, 45 and 60 minutes after injection of (4R, 5R)[^18F]FAA (mean 448±113 MBq), the five consecutive whole-body dynamic PET/CT scanning was conducted for each participant using a uMI 780 scanner (United Imaging Healthcare) or Discovery MI scanner (GE Healthcore). The CT acquisition parameters of the uMI 780 scanner were 120 kV, smart 100-200 mAs, detector coverage of 40 mm, spacing of 0.9875, slice thickness of 1.0 mm, and rotation time of 0.5 s. The PET emission scan time was 1.5 min per bed with 6 beds covering the scanning area. Finally, the PET images were reconstructed by the regularized ordered subset expectation maximization algorithm (R-OSEM, UNITED IMAGING) with attenuation normalization using ACCT images. The CT acquisition parameters of the Discovery MI scanner were 120 kV, smart 120-180 mA, detector coverage of 40 mm, slice thickness of 0.625 mm, pitch to speed of 0.984:1, 39.37 and rotation time of 0.6 s. The PET emission scanning time was 1 min per bed with 6 to 8 beds covering the scanning area. Finally, the PET images were reconstructed by a Bayesian penalized likelihood (BPL) reconstruction algorithm (Q.clear, GE Healthcare) and attenuation nominalization was performed using ACCT images. Urine samples were collected after the last PET/CT scan and total radioactivity of the urine was assessed.
# [4] = tested on: HCT8 xenograft tumor; experiment: micro-PET/CT imaging of tumor-bearing nude mice after intratumoral or tail vein injection; format: in vivo, nude mouse; settings: for SUVmax in the tumor: 5 min after injection; for SUVmax of the tumors: 1 h
# Experimental: A nude mouse model with HCT8 xenograft tumor was established, and dynamic imaging was performed after intratumoral injection upon anesthesia of the tumor-bearing mice: 0.1 mL (about 100 μCi) of the solution prepared automatically with saline dilution with or without supersaturated sodium ascorbate was taken from a 1 mL syringe needle, and the solution was injected intratumorally into the nude mice model with an automatic syringe pump at 0.1 mL/min, and a dynamic 1-h microPET/CT imaging was performed. Delayed imaging was performed: statically imaged 2 h after injection.
# Static micro-PET/CT imaging was performed 1 hour after tail vein injection in the anesthetized tumor-bearing mice.
# [5] = comparison PET tracer; cited from earlier work
# [6] = intratumoral injection, with supersaturated sodium ascorbate
# [7] = intratumoral injection, without supersaturated sodium ascorbate
compound,measurement,setting,value
"O=C1O[C@H]([C@@H](O)C[18F])C(O)=C1O [(4R, 5R)[^18F]FAA]","uptake in liver, adrenal glands, choroid plexus, pituitary gland and thyroid (exception of the kidney)",[1]; 1 h after injection,high uptake
same,"uptake in heart, muscle and brain",[1]; during the imaging phase,low
same,"uptake in liver, adrenal glands, kidneys, choroid plexus, pituitary gland and thyroid","[1]; earliest imaging time point, most subjects",high uptake
same,route of excretion,[1]; human,excreted mainly through the kidneys to the bladder
same,"uptake in spleen, intestine, salivary glands and bone marrow",[1]; slow clearance over time,moderate uptake
same,mean effective dose (ED),[2]; ICRP tissue weighting factors,1.68±0.36E-02 mSv/MBq
same,absorbed dose,[2]; adrenal gland,1.89±0.61E-02 mGy/MBq
same,residence time,[2]; bladder wall,1.16±0.54E-03 hours
same,absorbed dose,[2]; brain,4.88±1.21E-03 mGy/MBq
same,absorbed dose,[2]; kidney,1.87±0.38E-02 mGy/MBq
same,residence time,[2]; kidney,1.77±0.53 E-03 hours
same,absorbed dose,[2]; liver,3.42±0.75E-02 mGy/MBq
same,residence time,[2]; liver,22.5±4.94 E-02 hours
same,residence time,[2]; lung,3.18±0.49 E-02 hours
same,absorbed dose,[2]; spleen,2.95±1.70E-02 mGy/MBq
same,residence time,[2]; spleen,2.19±1.59 E-02 hours
same,residence time,[2]; thymus,2.74±1.37E-05 h
same,mean systemic absorbed dose,[2]; whole body,6.54±1.58E-03 mSv/MBq
same,metastases detected,[3]; 6 patients,168
same,primary lesions detected,[3]; 6 patients,2
same,mean SUVmax in all tumor lesions,"[3]; 6 patients, all tumor lesions",6.89±3.82
same,median SUVmax in all tumor lesions,"[3]; 6 patients, all tumor lesions",6.07
same,range of SUVmax in all tumor lesions,"[3]; 6 patients, all tumor lesions",1.62-22.85
same,tumor radioactivity uptake,[3]; kidney cancer and intestinal cancer patients,average tumor radioactivity uptake
same,uptake in primary and metastatic tumor foci,[3]; thyroid cancer and lung cancer,very high uptake
same,safety in humans,[3]; tumor patients,safe for use in humans
same,uptake in tumors,[3]; tumor patients,high uptake in tumors
same,effect of added supersaturated sodium ascorbate on metabolism of the tracer in the liver,"[4]; intratumoral injection, dynamic imaging",significantly inhibited
same,SUVmax in the tumor,[4]; [6],165 % ID/g
same,SUVmax of the tumors,[4]; [6],45 % ID/g
same,SUVmax in the tumor,[4]; [7],88 % ID/g
same,SUVmax of the tumors,[4]; [7],34 % ID/g
same,"SUVmax of tumors, delayed imaging","[4]; intratumoral injection, without supersaturated sodium ascorbate, 2 h after injection",35 % ID/g
same,SUVmax of the tumors,[4]; tail vein injection,6.3 % ID/g
same,uptake in tumors,[4]; tumor-bearing mice,certain tumor uptake; also recorded: high uptake in tumors
[^18F]FDG,systemic absorbed effective dose,[5],1.90±0.36 E-02 mSv/MBq
